Results from patent US20250129121A1, “POLYPEPTIDE, PRODUCT INCLUDING POLYPEPTIDE FOR INHIBITING FUSOBACTERIUM NUCLEATUM, OR DRUG FOR PREVENTING COLORECTAL CANCER” (priority 2022, published 2025).
≈ marks a conversion by molar mass, not a printed value. Where a SMILES comes first, the peptide text is derived from it.

Tests used:
[1] = test system: Bifidobacterium longum 6194; assay type: cell-based; conditions: 20 h
Method: (§1) A. Each polypeptide was prepared into a specified stock solution for later use. Minimum inhibitory concentrations (MICs) of the polypeptides P1 to P12 were determined by a broth microdilution method. With 0.01% acetic acid (including 0.2% of bovine serum albumin (BSA)) as a diluent, a series of gradient antimicrobial peptide solutions were prepared by a two-fold dilution method.
(§2) B. 100 μL of each polypeptide stock solution was taken and added to a 96-well cell culture plate, and then each strain solution to be tested (about 10^5/mL) was added in an equal volume to each well. A positive control (including a strain solution, but not including a polypeptide) and a negative control (including neither a strain solution nor a polypeptide). Strains to be tested include Escherichia coli Nissile 1917, Vibrio cholerae H1, Pseudomonas aeruginosa PAO1, F. nucleatum 25586, F. nucleatum 10953, Bifidobacterium uniformis 6597, Lactobacillus acidophilus 6075, Bifidobacterium longum 6194Lactobacillus rhamnosus 6141, and Streptococcus agalactiae H94.
(§3) C. The cell culture plate was incubated at a constant temperature of 37° C. for 20 h, and MIC was recorded when the turbidity was not observed by naked eyes at a bottom of a well. The strains all were purchased from the market.

[2] = test system: Bifidobacterium uniformis 6597; assay type: cell-based; conditions: 20 h
Method: as §1, §2, §3

[3] = test system: Escherichia coli Nissile 1917; assay type: cell-based; conditions: Nissile 1917, 20 h
Method: as §1, §2, §3

[4] = test system: Lactobacillus acidophilus 6075; assay type: cell-based; conditions: 20 h
Method: as §1, §2, §3

[5] = test system: Lactobacillus rhamnosus 6141; assay type: cell-based; conditions: 20 h
Method: as §1, §2, §3

[6] = test system: Pseudomonas aeruginosa PAO1; assay type: cell-based; conditions: PAO1, 20 h
Method: as §1, §2, §3

[7] = test system: Streptococcus agalactiae H94; assay type: cell-based; conditions: H94, 20 h
Method: as §1, §2, §3

[8] = test system: F. nucleatum 10953; assay type: cell-based, Fusobacterium nucleatum; conditions: 10953, 20 h
Method: as §1, §2, §3

[9] = test system: F. nucleatum 25586; assay type: cell-based, Fusobacterium nucleatum; conditions: 25586, 20 h
Method: as §1, §2, §3

SMILES | MIC Bifidobacterium longum 6194 [1] [µM] | MIC Bifidobacteriu muniformis 6597 [2] [µM] | MIC Escherichia coli nissile1917 [3] [µM] | MIC Lactobacillus acidophilus 6075 [4] [µM] | MIC Lactobacterium rhamnosus 6141 [5] [µM] | MIC Pseudomonas aeruginosa PAO1 [6] [µM] | MIC Streptococcus agalactiae H94 [7] [µM] | MIC Fusobacterium nucleatum 10953 [8] [µM] | MIC Fusobacterium nucleatum 25586 [9] [µM]
N=C(N)NCCC[C@H](NC(=O)CNC(=O)[C@@H]1CCCN1C(=O)[C@H](CCCNC(=N)N)NC(=O)[C@H](Cc1c[nH]c2ccccc12)NC(=O)[C@H](CCC(=O)O)NC(=O)[C@@H](N)Cc1c[nH]c2ccccc12)C(=O)N[C@@H](Cc1c[nH]c2ccccc12)C(=O)N[C@@H](CCC(=O)O)C(=O)N[C@@H](Cc1c[nH]c2ccccc12)C(=O)O [P1, WEWRPGRWEW] (H-WEWRPGRWEW-OH; N-terminus assumed) | >64 | >64 | >64 | >64 | >64 | >64 | >64 | >64 | >64
N=C(N)NCCC[C@H](NC(=O)CNC(=O)[C@@H]1CCCN1C(=O)[C@H](CCCNC(=N)N)NC(=O)[C@H](Cc1c[nH]c2ccccc12)NC(=O)[C@H](CCC(=O)O)NC(=O)[C@H](Cc1c[nH]c2ccccc12)NC(=O)[C@H](CCCNC(=N)N)NC(=O)[C@H](Cc1c[nH]c2ccccc12)NC(=O)[C@H](CCC(=O)O)NC(=O)[C@@H](N)Cc1c[nH]c2ccccc12)C(=O)N[C@@H](Cc1c[nH]c2ccccc12)C(=O)N[C@@H](CCC(=O)O)C(=O)N[C@@H](Cc1c[nH]c2ccccc12)C(=O)N[C@@H](CCCNC(=N)N)C(=O)N[C@@H](Cc1c[nH]c2ccccc12)C(=O)N[C@@H](CCC(=O)O)C(=O)N[C@@H](Cc1c[nH]c2ccccc12)C(=O)O [P2, WEWRWEWRPGRWEWRWEW] (H-WEWRWEWRPGRWEWRWEW-OH; N-terminus assumed) | >64 | >64 | >64 | >64 | >64 | >64 | >64 | >64 | >64
N=C(N)NCCC[C@H](NC(=O)CNC(=O)[C@@H]1CCCN1C(=O)[C@H](CCCNC(=N)N)NC(=O)[C@H](Cc1c[nH]c2ccccc12)NC(=O)[C@H](CC(=O)O)NC(=O)[C@@H](N)Cc1c[nH]c2ccccc12)C(=O)N[C@@H](Cc1c[nH]c2ccccc12)C(=O)N[C@@H](CC(=O)O)C(=O)N[C@@H](Cc1c[nH]c2ccccc12)C(=O)O [P4, WDWRPGRWDW] (H-WDWRPGRWDW-OH; N-terminus assumed) | >64 | >64 | >64 | >64 | >64 | >64 | >64 | >64 | >64
N=C(N)NCCC[C@H](NC(=O)CNC(=O)[C@@H]1CCCN1C(=O)[C@H](CCCNC(=N)N)NC(=O)[C@H](Cc1c[nH]c2ccccc12)NC(=O)[C@H](Cc1c[nH]cn1)NC(=O)[C@@H](N)Cc1c[nH]c2ccccc12)C(=O)N[C@@H](Cc1c[nH]c2ccccc12)C(=O)N[C@@H](Cc1c[nH]cn1)C(=O)N[C@@H](Cc1c[nH]c2ccccc12)C(=O)O [P7, WHWRPGRWHW] (H-WHWRPGRWHW-OH; N-terminus assumed) | >64 | >64 | 64 (≈ 96.2 µg/mL) | 32 (≈ 48.1 µg/mL) | 64 (≈ 96.2 µg/mL) | >64 | >64 | 8 (≈ 12 µg/mL) | 64 (≈ 96.2 µg/mL)

The next lines start with the values.

MIC Bifidobacterium longum 6194 [1] [µM] | MIC Bifidobacteriu muniformis 6597 [2] [µM] | MIC Escherichia coli nissile1917 [3] [µM] | MIC Lactobacillus acidophilus 6075 [4] [µM] | MIC Lactobacterium rhamnosus 6141 [5] [µM] | MIC Pseudomonas aeruginosa PAO1 [6] [µM] | MIC Streptococcus agalactiae H94 [7] [µM] | MIC Fusobacterium nucleatum 10953 [8] [µM] | MIC Fusobacterium nucleatum 25586 [9] [µM] | SMILES
>64 | >64 | >64 | >64 | >64 | >64 | >64 | >64 | >64 | N=C(N)NCCC[C@H](NC(=O)CNC(=O)[C@@H]1CCCN1C(=O)[C@H](CCCNC(=N)N)NC(=O)[C@H](Cc1c[nH]c2ccccc12)NC(=O)[C@H](CCC(=O)O)NC(=O)[C@H](Cc1c[nH]c2ccccc12)NC(=O)[C@H](Cc1c[nH]c2ccccc12)NC(=O)[C@H](CCC(=O)O)NC(=O)[C@H](Cc1c[nH]c2ccccc12)NC(=O)[C@H](CCCNC(=N)N)NC(=O)CNC(=O)[C@@H]1CCCN1C(=O)[C@H](CCCNC(=N)N)NC(=O)[C@H](Cc1c[nH]c2ccccc12)NC(=O)[C@H](CCC(=O)O)NC(=O)[C@@H](N)Cc1c[nH]c2ccccc12)C(=O)N[C@@H](Cc1c[nH]c2ccccc12)C(=O)N[C@@H](CCC(=O)O)C(=O)N[C@@H](Cc1c[nH]c2ccccc12)C(=O)O [P3] (H-WEWRPGRWEWWEWRPGRWEW-OH; N-terminus assumed)
>64 | >64 | 64 (≈ 176 µg/mL) | >64 | >64 | >64 | >64 | >64 | >64 | N=C(N)NCCC[C@H](NC(=O)CNC(=O)[C@@H]1CCCN1C(=O)[C@H](CCCNC(=N)N)NC(=O)[C@H](Cc1c[nH]c2ccccc12)NC(=O)[C@H](CC(=O)O)NC(=O)[C@H](Cc1c[nH]c2ccccc12)NC(=O)[C@H](CCCNC(=N)N)NC(=O)[C@H](Cc1c[nH]c2ccccc12)NC(=O)[C@H](CC(=O)O)NC(=O)[C@@H](N)Cc1c[nH]c2ccccc12)C(=O)N[C@@H](Cc1c[nH]c2ccccc12)C(=O)N[C@@H](CC(=O)O)C(=O)N[C@@H](Cc1c[nH]c2ccccc12)C(=O)N[C@@H](CCCNC(=N)N)C(=O)N[C@@H](Cc1c[nH]c2ccccc12)C(=O)N[C@@H](CC(=O)O)C(=O)N[C@@H](Cc1c[nH]c2ccccc12)C(=O)O [P5, WDWRWDWRPGRWDWRWDW] (H-WDWRWDWRPGRWDWRWDW-OH; N-terminus assumed)
>64 | >64 | 64 (≈ 186 µg/mL) | >64 | >64 | >64 | >64 | 64 (≈ 186 µg/mL) | 64 (≈ 186 µg/mL) | N=C(N)NCCC[C@H](NC(=O)CNC(=O)[C@@H]1CCCN1C(=O)[C@H](CCCNC(=N)N)NC(=O)[C@H](Cc1c[nH]c2ccccc12)NC(=O)[C@H](CC(=O)O)NC(=O)[C@H](Cc1c[nH]c2ccccc12)NC(=O)[C@H](Cc1c[nH]c2ccccc12)NC(=O)[C@H](CC(=O)O)NC(=O)[C@H](Cc1c[nH]c2ccccc12)NC(=O)[C@H](CCCNC(=N)N)NC(=O)CNC(=O)[C@@H]1CCCN1C(=O)[C@H](CCCNC(=N)N)NC(=O)[C@H](Cc1c[nH]c2ccccc12)NC(=O)[C@H](CC(=O)O)NC(=O)[C@@H](N)Cc1c[nH]c2ccccc12)C(=O)N[C@@H](Cc1c[nH]c2ccccc12)C(=O)N[C@@H](CC(=O)O)C(=O)N[C@@H](Cc1c[nH]c2ccccc12)C(=O)O [P6] (H-WDWRPGRWDWWDWRPGRWDW-OH; N-terminus assumed)
